The values that follow come from PMC8547461, “An Intracellular Sensing and Signal Transduction System That Regulates the Metabolism of Polycyclic Aromatic Hydrocarbons in Bacteria” (mSystems, 2021).

The target in data set [1] is DPR-1. Briefly: SPR (Biacore T200) with DPR-1, DPR-2 or their quadruple mutants immobilized on CM5 chips and cyclic nucleotides injected in 20 mM MOPS pH 8.0, 300 mM NaCl, 0.005% P20, 0.1 mg/ml BSA at 30 ul/min; 20 °C in results, 25 °C in methods; 1:1 binding fit (legend: steady-state affinity model). The note with it: read-out: affinity constant (KD); n = 3. A general note: Surface plasmon resonance follows binding to a sensor surface in real time, without labels.
Procedure: (§2) The interactions between DPR and secondary message molecules, including c-di-GMP, c-di-AMP, and cyclic AMP (cAMP), were examined using SPR assays.
(§3) SPR data for the binding of c-di-GMP to DPR-1 or DPR-2 (A) and DPR-1^L93A/D94A/T101A/L102A or DPR-2^L91A/D92A/T99A/L100A (B). […] The values of the affinity constant (KD) were calculated by global fitting, using a steady-state affinity model. Data were representatives of three independent experiments.
(§4) The values of the affinity constant (KD) were calculated by global fitting, using a steady-state affinity model. Data were representative of three independent experiments.
(§5) To reconfirm this binding model, site mutations were introduced into DPR-2 (or DPR-1) at L91/A91, D92/A92, T99/A99, and L100/A100, resulting in a quadruple mutated protein, DPR-2^L91A/D92A/T99A/L100A (or DPR-1^L93A/D94A/T101A/L102A). […]
(§6) We covalently immobilized 50 μg/ml DPR-1 and DPR-2 in 10 mM sodium acetate buffer (pH 5.5) onto separate CM5 sensor chips (GE Healthcare), using standard primary amine coupling procedures. […] After double referencing by subtracting the signal of the reference flow cell and the curve of the buffer injection, KD values for c-di-GMP binding to the DPRs immobilized on the sensor chip surface were calculated using reference points at the end of the association phase. Values were calculated with Biacore T200 evaluation software using a 1:1 binding mode.

Data set [2] addresses DPR-2. The description is as above. The note with it: read-out: affinity constant (KD); n = 3.
Procedure: as §2, §3, §4, §5, §6
Data set [3] deals with DPR-1 (Cycloclasticus sp. P1, UniProt K0C5A9). Briefly: SPR binding of cyclic nucleotides to DPR-1 sensor chip.
For data set [4], the target named is DPR-2 (Cycloclasticus sp. P1, UniProt K0C733). Briefly: SPR binding of cyclic nucleotides to DPR-2 sensor chip. The note with it: for Ka: DPR-2.
Data set [5] addresses T1, PdgC (Cycloclasticus sp. P1, UniProt K0C005). Briefly: SPR binding of PAHs to PdgC sensor chip. Details: species or system Cycloclasticus sp. strain P1. To be noted: wild-type PdgC; for Kd: 20°C, read-out: affinity constant (KD). The procedure: (§1) The immobilization of the PdgC PAS domain on the sensor surface was carried out as previously described ([68]). Briefly, PdgC was diluted in 10 mM sodium acetate (pH 5.5) and immobilized on a CM5 sensor chip using the amine coupling method by following the manufacturer’s protocol. SPR measurements were performed using a Biacore T200 system (GE Healthcare, Sweden).
PAH compounds were diluted in running buffer (phosphate-buffered saline [PBS] containing 5% DMSO) to a concentration of 50 μM. Running buffer alone (PBS containing 5% DMSO, without PAHs) served as the negative control. All solutions were then injected into the PdgC sensor surface for 120 s at a flow rate of 30 μl/min. Sensograms of these PAHs were recorded and analyzed. […] The association and dissociation times were both 120 s. Affinity fitting (determination of the affinity constant, KD) was performed using Biacore T200 evaluation software with a 1:1 binding mode.

The test system of data set [6] is PdgC^L68A/V73A/K77G/I115G. In words: SPR binding of PAHs to four-site mutated PdgC sensor chip. Details: species or system Cycloclasticus sp. strain P1. To be noted: four-site mutation PdgC; for Kd: read-out: affinity constant (KD). How it is done: as §1
PAH compounds were diluted in running buffer (phosphate-buffered saline [PBS] containing 5% DMSO) to a concentration of 50 μM. Running buffer alone (PBS containing 5% DMSO, without PAHs) served as the negative control. All solutions were then injected into the PdgC sensor surface for 120 s at a flow rate of 30 μl/min. Sensograms of these PAHs were recorded and analyzed. Analytes were injected through the reference and active channels at a flow rate of 30 μl/min. The association and dissociation times were both 120 s. Affinity fitting (determination of the affinity constant, KD) was performed using Biacore T200 evaluation software with a 1:1 binding mode.

Data set [7] has as its system wild-type Cycloclasticus sp. strain P1. In words: Intracellular c-di-GMP quantification (HPLC-MS/MS), wild type. The note with it: for intracellular concentration of c-di-GMP vs PAH-absent control: wild-type strain P1, after exposure to PAH, 48 h. The data set is classed as cell-based. How it is done:
Intracellular c-di-GMP levels were determined using high-performance liquid chromatography tandem mass spectrometry (HPLC-MS/MS), as previously described ([66]), with the following modifications. Strain P1 cells, obtained from OD-adjusted overnight precultures, were inoculated onto various PAH substrates and grown for 48 h in triplicate. Bacterial pellets were resuspended in 0.2% ice-cold formaldehyde at a concentration of 300 mg wet weight/ml, incubated on ice for 10 min, and then centrifuged at 10,000 × g for 15 min. Each pellet was then resuspended in […] of H2O. After extracting nucleotides using ethanol extraction ([67]), samples were dried under a vacuum, reconstituted in […] of H2O via vigorous vortexing and sonication for 5 min, and finally centrifuged for 15 min at 10,000 × g. The supernatants were analyzed at 55°C using an Agilent 1200 HPLC system with a C18 ACE 3 AQ 150- by 2.1-mm column and the corresponding column guard. The mobile phase consisted of 0.1% formic acid run in an H2O-acetonitrile gradient at a flow rate of 300 μl/min, reaching 50% acetonitrile in 15 min. MS analysis was then performed via negative ion electrospray from the Agilent HPLC system into a Bruker HCT Plus ion trap in multiple reaction mode. Using SmartFrag (HyStar software), the trap was set to isolate fragment ions at m/z 688.9 (with a monitored mass range of m/z 450 to 700) from a full scan. Data Analysis v3.3 was used to interrogate the acquisitions, and the extracted ion chromatograms of m/z 538 were produced from the negative-ion MS/MS of m/z 688.9. The retention times and peak spectra were matched to the injected standard (c-di-GMP; Biolog LifeScience Institute, Bremen, Germany) at intervals throughout the run. Peak areas and relative c-di-GMP levels were normalized to the levels obtained with the injected standard. A solution of 1 mg/ml c-di-GMP standard in water was diluted to prepare the spiking solutions with 100 ng/ml, 200 ng/ml, 300 ng/ml, 400 ng/ml, 500 ng/ml, 600 ng/ml, 700 ng/ml, 800 ng/ml, and 900 ng/ml c-di-GMP standard. Extractions and quantifications were all performed in triplicate. The amount of c-di-GMP detected in the blank was subtracted from that detected in the spiked calibrants, and the analysis was calibrated using a linear regression (r^2 = 0.993). To obtain an estimate of c-di-GMP concentration per unit of cellular biomass, the c-di-GMP concentration was divided by the measured OD600 of the original culture.

The target of data set [8] is T1, PdgC. Also noted: method as in PMID 30171002. To be noted: in the presence of PAH; cited from earlier work.
The test system of data set [9] is DPR-1. Briefly: Expression of dpr-1 in wild-type P1 (real-time PCR). The note with it: wild-type strain P1 grown on PAH, control sodium acetate. (In general: In qPCR the cycle at which signal appears reflects the starting amount.)
Procedure: Cycloclasticus sp. strain P1 and mutant strain PARP1 were grown in 200 ml of MMC medium containing the appropriate antibiotics, with sodium acetate or PAHs as the carbon source, in 500 ml Erlenmeyer flasks at 28°C on a rotary shaker (200 rpm). Bacterial growth was monitored based on optical density (OD600). Total RNA was extracted using the RNeasy minikit (Qiagen, Valencia, CA, USA) according to the manufacturer’s protocols and subsequently treated with DNase I (Invitrogen, Carlsbad, CA, USA). The RNA yield was estimated using a NanoDrop UV spectrometer (Thermo Scientific, Wilmington, DE, USA). Approximately 4 μg of RNA was reverse transcribed using 20 ng of random primers (Invitrogen, Carlsbad, CA, USA) and PrimeScript reverse transcriptase (TaKaRa, Dalian, China). Control reactions were performed in the absence of reverse transcriptase to verify the absence of genomic DNA. To calculate the number of viable bacteria present, 16S rRNA gene copy numbers were determined using quantitative real-time PCR.
Quantitative real-time PCRs were performed using IQ SYBR green Supermix and the IQ5 multicolor real-time PCR detection system (Bio-Rad, CA, USA). The reactions were performed in 96-well optical plates sealed with optical caps. […] Fluorescence data were acquired at the end of the elongation step. […]
The samples were quantified using a calibration curve that was generated in parallel. A standard quantification curve was generated for each of the tested genes based on a serial dilution of a known amount of target DNA (from 10 to 10^6 copies) utilizing the optimal PCR conditions described above. […] Based on the calibration curve (determined using IQ^5 multicolor real-time PCR detection system software), the initial copy number of each target mRNA was calculated for each sample. The calculated values were normalized to the expression of the 16S rRNA gene to yield the number of copies of each mRNA transcript in 1,000 wild-type Cycloclasticus sp. strain P1 or mutant cells.
In data set [10] the test system is DPR-2. Briefly: Expression of dpr-2 in wild-type P1 (real-time PCR). To be noted: wild-type strain P1 grown on PAH, control sodium acetate.
Procedure: Cycloclasticus sp. strain P1 and mutant strain PARP1 were grown in 200 ml of MMC medium containing the appropriate antibiotics, with sodium acetate or PAHs as the carbon source, in 500 ml Erlenmeyer flasks at 28°C on a rotary shaker (200 rpm). Bacterial growth was monitored based on optical density (OD600). Total RNA was extracted using the RNeasy minikit (Qiagen, Valencia, CA, USA) according to the manufacturer’s protocols and subsequently treated with DNase I (Invitrogen, Carlsbad, CA, USA). The RNA yield was estimated using a NanoDrop UV spectrometer (Thermo Scientific, Wilmington, DE, USA). […] To calculate the number of viable bacteria present, 16S rRNA gene copy numbers were determined using quantitative real-time PCR.
Quantitative real-time PCRs were performed using IQ SYBR green Supermix and the IQ5 multicolor real-time PCR detection system (Bio-Rad, CA, USA). […] Fluorescence data were acquired at the end of the elongation step. […]
The samples were quantified using a calibration curve that was generated in parallel. A standard quantification curve was generated for each of the tested genes based on a serial dilution of a known amount of target DNA (from 10 to 10^6 copies) utilizing the optimal PCR conditions described above. […]
The target of data set [11] is T1, PdgC. Briefly: PdgC enzymatic activity assay (Enzchek pyrophosphate assay). The note with it: PAH 2 μM, inorganic pyrophosphate assay.
Procedure: Assays were performed using the Enzchek pyrophosphate assay kit (Invitrogen). […] In addition, the pyrophosphatase in the kit was replaced by 0.4 U/ml pyrophosphatase (Sigma). […] The accumulation of phosphate was monitored over time at OD360.
The subject of data set [12] is DPR-1 (Cycloclasticus sp. strain P1). In words: SPR. The note with it: biotin-DNA on streptavidin chip, DPR 0-100 nM, with or without 80 nM c-di-GMP, 25 C, 30 ul/min, 150 s association/150 s dissociation, 1:1 fit, buffer ….
Data set [13] has as its system DPR-2 (Cycloclasticus sp. strain P1). Briefly: SPR. To be noted: biotin-DNA on streptavidin chip, DPR 0-100 nM, with or without 80 nM c-di-GMP, 25 C, 30 ul/min, 150 s association/150 s dissociation, 1:1 fit, buffer ….
Where [14] appears, read: no c-di-GMP, value order assumed as in Fig. 7 legend.

“And” between values parts separate entries of the source, which are not always exact repeats. Equal values may be shown once. Read-outs that look alike come from different tables or passages of the source.

T1 sequence (K0C005 1-445): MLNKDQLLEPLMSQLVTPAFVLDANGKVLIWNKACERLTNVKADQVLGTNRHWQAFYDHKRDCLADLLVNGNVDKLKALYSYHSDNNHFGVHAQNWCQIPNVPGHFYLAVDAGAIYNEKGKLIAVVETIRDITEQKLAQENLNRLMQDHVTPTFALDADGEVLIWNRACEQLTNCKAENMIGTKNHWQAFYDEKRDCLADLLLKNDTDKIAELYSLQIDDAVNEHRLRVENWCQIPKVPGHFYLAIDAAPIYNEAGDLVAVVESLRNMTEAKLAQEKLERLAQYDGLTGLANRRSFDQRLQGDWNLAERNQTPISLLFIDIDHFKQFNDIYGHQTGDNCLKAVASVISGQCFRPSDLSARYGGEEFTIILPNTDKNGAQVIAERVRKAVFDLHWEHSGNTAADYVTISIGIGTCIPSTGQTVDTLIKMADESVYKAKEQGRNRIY
DPR-1 (Cycloclasticus sp. P1, UniProt K0C5A9), sequence (K0C5A9 1-242): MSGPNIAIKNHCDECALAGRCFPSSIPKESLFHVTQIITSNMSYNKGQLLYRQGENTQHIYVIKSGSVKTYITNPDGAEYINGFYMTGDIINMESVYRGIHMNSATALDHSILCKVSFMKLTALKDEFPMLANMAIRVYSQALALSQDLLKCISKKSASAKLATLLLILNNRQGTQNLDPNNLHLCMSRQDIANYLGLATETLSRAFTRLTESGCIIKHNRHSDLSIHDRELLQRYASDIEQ
DPR-2 (Cycloclasticus sp. P1, UniProt K0C733), sequence (K0C733 1-238): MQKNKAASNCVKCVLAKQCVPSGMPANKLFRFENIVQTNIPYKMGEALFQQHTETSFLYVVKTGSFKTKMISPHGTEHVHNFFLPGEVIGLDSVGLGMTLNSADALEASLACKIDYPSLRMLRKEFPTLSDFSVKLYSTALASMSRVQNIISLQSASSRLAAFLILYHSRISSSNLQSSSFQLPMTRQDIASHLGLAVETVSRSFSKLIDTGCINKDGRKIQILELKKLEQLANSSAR

With `Nc1ncnc2c1ncn2[C@@H]1O[C@@H]2COP(=O)(O)O[C@H]3[C@@H](O)[C@H](n4cnc5c(N)ncnc54)O[C@@H]3COP(=O)(O)O[C@H]2[C@H]1O` [c-di-AMP, cyclic dimeric AMP], the results for the Kd on DPR-1 [1] and on DPR-2 [2] were 4.1 µM and 2.6 µM, respectively.

Consider `Nc1ncnc2c1ncn2[C@@H]1O[C@@H]2COP(=O)(O)O[C@H]3[C@@H](O)[C@H](n4cnc5c(N)ncnc54)O[C@@H]3COP(=O)(O)O[C@H]2[C@H]1O` [c-di-AMP], for which, on DPR-1 [3] (DPR-1), the Ka is reported as 6.58e3 M^-1S^-1 and the Kd is given as 2.73e-2 S^-1. On DPR-2 [4], this molecule had a Ka of 6.16e3 M^-1S^-1.

`Nc1nc2c(ncn2C2OC3COP(=O)(O)OC4C(COP(=O)(O)OC3C2O)OC(n2cnc3c(=O)[nH]c(N)nc32)C4O)c(=O)[nH]1` (stereo not shown) [c-di-GMP, cyclic dimeric GMP]: the Ka stood at 3.94e5 M^-1S^-1 at DPR-1 [3] (DPR-1) and 5.41e5 M^-1S^-1 at DPR-2 [4]. The Kd is 1.09e-2 S^-1 at DPR-1 [3] (DPR-1); 0.04 µM and ~0.1 µM on DPR-2 [4] (affinity constant (KD), DPR-2, 20°C).

On to `Nc1ncnc2c1ncn2[C@@H]1O[C@@H]2COP(=O)(O)O[C@H]2[C@H]1O` [cAMP, cyclic AMP], for which the Ka on DPR-1 [3] (DPR-1) is recorded as 4.15e3 M^-1S^-1; at DPR-2 [4] it was 5.33e3 M^-1S^-1. In addition, the Kd at DPR-1 [3] (DPR-1) is 1.35e-2 S^-1; on DPR-1 [3] (read-out: affinity constant (KD), DPR-1, 20°C), 3.3 µM; on DPR-2 [4] (read-out: affinity constant (KD), DPR-2, 20°C) it was 3.5 µM.

`c1ccc2ccccc2c1` [naphthalene]: the Ka at PdgC [5] is reported as 5.51e5 M^-1S^-1; in data set [6] it was 7.6e2 M-1S-1. The Kd was 78 µM in data set [6] (listed as Naphthalene) and about 100 µM in data set [6]. Moreover, the “intracellular concentration of c-di-GMP vs PAH-absent control” value in [7] is given as 8- to 10 fold. In addition, the pdgC upregulation on PdgC [8] is 6.5- to 8.0 fold. Further, the DPR-1 expression result in the data set on DPR-1 [9] was “slightly upregulated”. In addition, the DPR-2 expression entry in the data set with DPR-2 [10] is reported as “slightly upregulated”.

As to `c1ccc2c(c1)ccc1ccccc12` [phenanthrene], the values for the Kd (on PdgC [5]; in [6] (listed as Phenanthrene); in [6]) were 0.046 µM, 43 µM and about 100 µM, respectively. Further, the “intracellular concentration of c-di-GMP vs PAH-absent control” value in [7] is 8- to 10 fold. For the same molecule, the pdgC upregulation on PdgC [8] is listed as 6.5- to 8.0 fold. For the same molecule, the DPR-1 expression entry in the data set on DPR-1 [9] was “slightly upregulated”. Besides, the DPR-2 expression result in the data set on DPR-2 [10] is “slightly upregulated”. In addition, the “PdgC activity in vitro” value at PdgC [11] is reported as “active only in the presence of PAHs”.

`c1cc2ccc3cccc4ccc(c1)c2c34` [pyrene]: the Ka on PdgC [5] is given as 4.12e5 M^-1S^-1. In addition, the results for the Kd (at PdgC [5]; in [6] (listed as Pyrene); in data set [6]) were 0.046 µM, 100 µM and about 100 µM, respectively. Besides, the “c-di-GMP production higher than that caused by naphthalene or phenanthrene” value in data set [7] (wild-type strain P1) was in the range of 30 to 35%. Further, in data set [7], the “intracellular concentration of c-di-GMP vs PAH-absent control” value was 8- to 10 fold. Also, the pdgC upregulation at PdgC [8] was 6.5- to 8.0 fold. Besides, in the data set with DPR-1 [9], the DPR-1 expression result was “significantly upregulated”. The “PdgC activity in vitro” value on PdgC [11] is recorded as “active only in the presence of PAHs”.

Take PQ91_0869: the Kd in data set [12] came out at 0.0033 µM; in [12] (no c-di-GMP), 0.69 µM.

PQ91_0870-0877: the Kd in data set [12] was found to be 0.00062 µM; in [12] (no c-di-GMP, text prints 0.73 x 10^6 M, exponent sign evidently lost), 0.73 µM.

As for PQ91_2220-2218, the Kd came out at 0.00059 µM in [13] and 0.78 µM in data set [13] (setting [14]).

As for PQ91_2227-2224, the Kd in data set [13] was 0.00071 µM; in [13] (setting [14]), 0.62 µM.

For PQ91_2244-2242, the values for the Kd in data set [13] and in data set [13] (setting [14]) were 0.0064 µM and 0.63 µM, respectively.
